Test results reported in patent US20100003190A1, “Method for protecting renal tubular epithelial cells from radiocontrast nephropathy (RCN)” (Caritas St. Elizabeth's Medical Center of Boston, Inc., priority 2006, published 2010).

Key:
[1] = patients with chronic renal failure; cited from earlier work
HK-2 cells = assay: MTT cell viability of HK-2 cells exposed to iodinated radiocontrast media, with or without rhEpo; type: cell-based, human
Method: (§1) HK-2, a proximal tubular cell line derived from normal human kidney, and LLC-PK1, a proximal renal tubular cell line of porcine origin, were obtained from the American Type Culture Collection ATCC (Manassas, Va.). HK-2 cells were grown in DMEM media (GIBCO) supplemented with 10% FBS (Hyclone), 15 mM HEPES, 2 mM L-glutamine, 50 U/ml penicillin, 50 μg/ml streptomycin (GIBCO), 0.1 μg/ml hydrocortisone, 5 μg/ml insulin, and 5 μg/ml apotransferrin (Sigma, St. Louis, Mo.). LLC-PK1 cells were maintained in medium 199 (GIBCO) supplemented with 10% FBS and penicillin-streptomycin. For the planned experiments, cells were seeded on 24-well plates at a density of 10^4 cells/cm^2 and cultured at 37° C. for 24 hours.
(§2) […] The cell viability was assessed by the mitochondrial activity in reducing MTT to form […] using a commercially available kit (Cell Proliferation Kit, Roche, Penzberg, Germany). In brief, cells were incubated at 37° C. for 4 hours in 200 μl of serum-free, phenol red free medium containing 20 μl of the MTT labeling reagent. 200 μl of solubilization solution were added to each well and cells were incubated at 37° C. for 24 hours. Aliquots of the incubation medium were transferred to a 96-well microplate and absorbance was measured at 570 nm with the reference of 690 nm using a microplate reader (MRX-II, Dynex).

[2] = as above; type: cell-based, human; conditions: human, HK-2 cells (proximal tubular cell line), HK-2 cells, 100 mg iodine/mL contrast media, read-out: reduction of cell viability (MTT); for cytotoxicity at 1 h, 100 mg iodine/mL: 1-hour incubation; for cytotoxicity at 6 h, 100 mg iodine/mL: 6-hour incubation
Method: as §1, §2

LLC-PK1 cells = assay: MTT cell viability of LLC-PK1 cells exposed to iodinated radiocontrast media, with or without rhEpo or darbepoetin; type: cell-based, porcine; conditions: LLC-PK1 cells (data not shown)
Method: as §1
Cells were exposed to iodinated radiocontrast media (100 mg iodine/ml) for 6 hours at 37° C., then washed twice with Dulbecco PBS solution, and incubated in serum-free culture medium for 24 hours at 37° C. The cell viability was assessed by the mitochondrial activity in reducing MTT to form […] using a commercially available kit (Cell Proliferation Kit, Roche, Penzberg, Germany). […] Aliquots of the incubation medium were transferred to a 96-well microplate and absorbance was measured at 570 nm with the reference of 690 nm using a microplate reader (MRX-II, Dynex).

caspase-3 = assay: Caspase-3 activity (Caspase-Glo 3/7) in LLC-PK1 cells after radiocontrast media; type: cell-based, porcine
Method: Activity of caspase-3 was measured by the degradation of subtype-specific peptide substrate after exposure of LLC-PK1 cells to iohexol or iodixanol. In brief, cells were seeded in 96-well plates and treated with radiocontrast media as described. After removal of the media, 100 μl of the Caspase-Glo 3/7 reagent (Promega, Madison, Wis.) were added to each well, and cells were incubated at room temperature for 1 hour. Luminescence of each sample was measured on a luminometer (Lumat LB9507, EGG Berthold). As a control for specificity, DEVD-CHO (Calbiochem, EMD Biosciences), a caspase-3 inhibitor, was added to appropriate wells during incubation in a final concentration of 50 μM. In parallel, cells were stained in wells with crystal violet and the absorption at 600 nm was measured. For each well, the luminometer data were normalized to the level of crystal violet absorption.

[3] = renal tubular epithelial cells, co-treatment, cell line not given

In the case of `C[C@H](O)C(=O)Nc1c(I)c(C(=O)NC(CO)CO)c(I)c(C(=O)NC(CO)CO)c1I` [iopamidol], the elimination half-life [1] is listed as “about 70 hours”.

With `CC(=O)Nc1c(I)c(NC(C)=O)c(I)c(C(=O)O)c1I` [diatrizoate, 3,5-Diacetamido-2,4,6-triiodobenzoic acid] the “toxic effects on renal tubular cells, comparison between contrast media” value (HK-2 cells; HK-2 cells, 6-hour incubation) was “more toxicity”, the cytotoxicity at 1 h, 100 mg iodine/mL [2] was 44% and the cytotoxicity at 6 h, 100 mg iodine/mL [2] was 99%.

For `CC(=O)N(CC(O)CO)c1c(I)c(C(=O)NCC(O)CO)c(I)c(C(=O)NCC(O)CO)c1I` (stereo not shown) [iohexol], the cytotoxicity at 1 h, 100 mg iodine/mL [2] was 36%, the cytotoxicity at 6 h, 100 mg iodine/mL [2] was 60% and the “cell damage by radio-contrast agent” value (LLC-PK1 cells) was “marked cell damage”.

For DEVD-CHO, the “effect on radiocontrast-induced increase in caspase-3 activity” value (caspase-3; LLC-PK1 cells, iohexol or iodixanol, co-treatment with inhibitor 50 μM) was “abrogated”.

For `CC(=O)N(CC(O)CN(C(C)=O)c1c(I)c(C(=O)NCC(O)CO)c(I)c(C(=O)NCC(O)CO)c1I)c1c(I)c(C(=O)NCC(O)CO)c(I)c(C(=O)NCC(O)CO)c1I` (stereo not shown) [iodixanol], the “effect on caspase-3 activity” value (caspase-3; LLC-PK1 cells, 100 mg iodine/ml) was “induced an increase”, the cytotoxicity at 1 h, 100 mg iodine/mL [2] was 33% and the cytotoxicity at 6 h, 100 mg iodine/mL [2] was 48%. For the same molecule, the “cell damage by radio-contrast agent” value (LLC-PK1 cells) was “marked cell damage”.

With “rhEpo: Recombinant human erythropoietin, a widely available agent for the treatment of anemia; Epoetin alfa (EPOGEN) purchased from Amgen” the “effect on iohexol-induced caspase-3 activation” value (caspase-3; LLC-PK1 cells, co-treatment, rhEpo 200 U/ml) was “suppressed”, the “reduction of the induction of caspase-3 activation by iohexol” value (caspase-3; co-treatment of cells with rhEpo) was 20% and the “protective effect against cytotoxic effect of iodixanol” value (HK-2 cells; HK-2 cells, 200 U/ml rhEpo, iodixanol 100 mg iodine/ml) was “similarly protective”. For the same molecule, the “protective effect against cellular toxicity of iohexol” value (HK-2 cells; HK-2 cells, 6 hours iohexol, three concentrations of rhEpo (0-400 U/ml), dose dependent) was “partially reversed”, the “concentration providing ceiling of protective effect” value (HK-2 cells; HK-2 cells, iohexol) was 200 U/ml and the “reduction of toxicity of iodixanol (MTT cell viability assay)” value (HK-2 cells; [3]) was 20%. The “reduction of toxicity of iohexol (MTT cell viability assay)” value (HK-2 cells; [3]) was 20%.
